Data published in patent publication US7576095B2, “Therapeutic agents” (Astrazeneca AB, priority 2005, dated 2009).

Key:
[1] = Solubility in dimethyl sulfoxide; format: physicochemical
Source text: The compounds of the present invention have improved solubility in organic solvents compared to compounds in the prior art. […] It would be expected that this increase in solubility in organic solvents would lead to improvements in bioavailability and ease of manufacture and formulation.

CB1 receptor = molecular target: T1, CB1 receptor (Homo sapiens, UniProt P21554); experiment: [35S]-GTPγS binding assay, membranes of cells stably transfected with the CB1 gene, inhibition of agonist CP55940 (EC80); format: biochemical; conditions: half maximal inhibition of GTPγS binding; EC80 concentration of CP55940
T1 construct: expressed in transfected cells
Experimental: Compounds of the present invention are active against the receptor product of the CB1 gene. The affinity of the compounds of the invention for central cannabinoid receptors is demonstrable in methods described in Devane et al , Molecular Pharmacology, 1988, 34,605 or those described in WO01/70700 or EP 656354. Alternatively the assay may be performed as follows.
10 μg of membranes prepared from cells stably transfected with the CB1 gene were suspended in 200 μl of 100 mM NaCl, 5 mM MgCl2, 1 mM EDTA, 50 mM HEPES (pH 7.4), 1 mM DTT, 0.1% BSA and 100 μM GDP. To this was added an EC80 concentration of agonist (CP55940), the required concentration of test compound and 0.1 μCi [^35S]-GTPγS. The reaction was allowed to proceed at 30° C. for 45 min. […] Filters were then covered with scintilant and counted for the amount of [^35S]-GTPγS retained by the filter.
Activity is measured in the absence of all ligands (minimum activity) or in the presence of an EC80 concentration of CP55940 (maximum activity). […] At various concentrations of novel ligand, activity is calculated as a percentage of the maximum activity and plotted. The data are fitted using the equation y=A+((B-A)/1+((C/x) UD)) and the IC50 value determined as the concentration required to give half maximal inhibition of GTPγS binding under the conditions used.

T1 sequence (P21554 whole entry): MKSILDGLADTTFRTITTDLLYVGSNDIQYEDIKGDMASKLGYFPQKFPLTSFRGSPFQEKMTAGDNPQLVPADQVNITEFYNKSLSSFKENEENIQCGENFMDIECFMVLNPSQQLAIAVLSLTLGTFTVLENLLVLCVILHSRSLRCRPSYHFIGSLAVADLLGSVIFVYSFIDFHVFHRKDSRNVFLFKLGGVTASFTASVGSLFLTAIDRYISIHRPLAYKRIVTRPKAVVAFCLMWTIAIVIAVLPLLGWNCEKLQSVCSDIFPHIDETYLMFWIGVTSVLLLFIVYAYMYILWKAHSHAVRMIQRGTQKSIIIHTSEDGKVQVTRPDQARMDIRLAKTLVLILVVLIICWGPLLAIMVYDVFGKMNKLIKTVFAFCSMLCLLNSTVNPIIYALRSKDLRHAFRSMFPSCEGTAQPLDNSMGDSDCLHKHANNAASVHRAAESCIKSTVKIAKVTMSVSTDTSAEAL

Row | SMILES | solubility in dimethyl sulfoxide [1] | IC50 (CB1 receptor) [nM]
1 | Cc1c2c(n(-c3ccc(Cl)cc3Cl)c1-c1ccc(Cl)cc1)CCN(N1CCCCC1)C2=O [Example 19 of WO03/027114, 2-(4-chlorophenyl)-1-(2,4-dichlorophenyl)-3-methyl-5-(1-piperidinyl)-1,5,6,7-tetrahydro-4H-pyrrolo-[3,2-c]pyridin-4-one] | insoluble | –
2 | Cc1c2c(n(-c3ccccc3Cl)c1-c1ccc(OS(=O)(=O)CCC(F)(F)F)cc1)CCN(N1CCCCC1)C2=O [Example 1, 3,3,3-Trifluoropropane-1-sulfonic acid 4-[1-(2-chlorophenyl)-3-methyl-4-oxo-5-piperidin-1-yl-4,5,6,7-tetrahydro-1H-pyrrolo[3,2-c]pyridine-2-yl]phenyl ester] | – | 0.98
